Laboratory results taken from patent US20120190666A1, “Heteroaryl Compounds as PIKK Inhibitors” (Amgen Inc., priority 2009, published 2012).

Columns and labels:
[1] = target: mTOR (Homo sapiens, UniProt P42345); experiment: mTOR LanthaScreen (TR-FRET, phosphorylation of 4EBP1); format: biochemical; conditions: phosphorylation of GFP-4E-BP1, 10 μM ATP, 90 minutes
Experimental: The mTOR LanthaScreen is a TR-FRET assay measuring the phosphorylation of mTOR's substrate 4EBP1. 384 well compound plates were prepared containing 1 μl of compound per well starting at 5 mM and diluted 1:2 across the row, resulting in a 22 well serial dilution. 24 μl of assay buffer (Invitrogen, PV4794) with 2 mM DTT was added to the compound plate in rows 1-24 using the VELOCITY 11™ VPREP™ 384 ST resulting in a DMSO concentration of 4%. The compound plate was mixed and 2.5 μl of serially diluted compound or controls was added to the assay plate (Costar, 3658).
The assay was conducted on the PerkinElmer® FlexDrop PLUS. A 5 μl mix of 800 nM GFP-4E-BP1 (Invitrogen, PV4759) and 20 μM ATP (Amgen) was added to rows 1-24. 2.5 μl of 0.6 μg/ml of mTOR Enzyme (Amgen) was added to rows 1-23. 2.5 μl of assay buffer was added to row 24 for the low control. The final concentration of the compounds was 50 μM serially diluted to 23.84 pM in 1% DMSO. […] The final concentrations in the assay reagents were 400 nM GFP-4E-BP1, 10 μM of ATP and 0.15 μg/ml of mTOR enzyme. The compound, enzyme, and substrate were incubated for 90 minutes. At this point, 10 μl of stop solution was added (20 mM Tris, pH 7.5 (Invitrogen, 15567-027), 0.02% Sodium Azide (Teknova, S0208), 0.01% NP-40 (Roche, 11754599001), 20 mM EDTA (Invitrogen, 15575-038) and 4 nM of Tb-anti-p4E-BP1 (Invitrogen, PV4758)) for a final concentration of 2 nM of Tb-anti-p4E-BP1.
Sixty minutes later the plates were read on the PerkinElmer® EnVision™ 2103 Multilable Reader using the Excitation filter 340 nm and the Emission filters 520 nm and 495 nm.

[2] = tested on: phosphorylation of Akt at Serine 473 in U87 MG cells; experiment: pAkt AlphaScreen (U87 cell); format: cell-based; conditions: pAkt at Serine 473, U87 MG cells, two hours with compound
Method in brief: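 U87 MG cells (5K per well, plated overnight) treated 2 h at 37 °C with compound, 25 μM to 11.9 pM final in 0.5% DMSO. Lysates assayed for Akt Ser473 phosphorylation with SureFire AlphaScreen, incubated overnight at room temperature; IC50 from percent of control.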

Row | Structure (SMILES) | IC50 [1] | IC50 ([2]; Homo sapiens, U-87 MG, 2 h) | IC50 [2]
1 | CNc1nc(C)nc(-c2c(Nc3cc[nH]n3)nc3ccccn23)n1 [Cpd 3, 3-(4-methyl-6-(methylamino)-1,3,5-triazin-2-yl)-N-(1H-pyrazol-3-yl)imidazo[1,2-a]pyridin-2-amine] | 53 nM | 50 nM | 
2 | Cc1nc(N)cc(-c2c(Nc3ccn(C)n3)nc3ccc(-c4cccc(S(C)(=O)=O)c4)cn23)n1 [Cpd 65, 3-(6-amino-2-methyl-4-pyrimidinyl)-N-(1-methyl-1H-pyrazol-3-yl)-6-(3-(methylsulfonyl)phenyl)imidazo[1,2-a]pyridin-2-amine] | 340 nM | 380 nM | 
3 | Cc1nc(NC(=O)C2CC2)cc(-c2c(Nc3cc[nH]n3)nc3cccnn23)n1 [Cpd 120] | 290 nM | 110 nM | 
4 | Cc1nc(N)nc(-c2c(Nc3cc[nH]n3)nc3ccc(-c4ccc5c(c4)CCNC5=O)cn23)n1 [Cpd 175, 6-(3-(4-amino-6-methyl-1,3,5-triazin-2-yl)-2-(1H-pyrazol-3-ylamino)imidazo[1,2-a]pyridin-6-yl)-3,4-dihydro-1(2H)-isoquinolinone] | 2 nM | 30 nM | 
5 | Cc1nc(N)cc(-c2c(Nc3ccc(NC(=O)Nc4ccncc4)cc3)nc3ccccn23)n1 [Cpd 57, 1-(4-((3-(6-amino-2-methyl-4-pyrimidinyl)imidazo[1,2-a]pyridin-2-yl)amino)phenyl)-3-(4-pyridinyl)urea] | 10 nM | 70 nM | 
6 | Cc1nc(N)nc(-c2c(Nc3cc[nH]n3)nc3cc(C4=CCN(C(=O)OC(C)(C)C)CC4)ccn23)n1 [Cpd 183, tert-butyl 4-(3-(4-amino-6-methyl-1,3,5-triazin-2-yl)-2-(1H-pyrazol-3-ylamino)imidazo[1,2-a]pyridin-7-yl)-3,6-dihydro-1(2H)-pyridinecarboxylate] | 460 nM | 760 nM | 
7 | Cc1nc(NC(=O)N(C)C)cc(-c2c(Nc3cc[nH]n3)nc3cccnn23)n1 [Cpd 75, 1,1-dimethyl-3-(2-methyl-6-(2-(1H-pyrazol-3-ylamino)imidazo[1,2-b]pyridazin-3-yl)-4-pyrimidinyl)urea] | 1420 nM | 790 nM | 
8 | Cc1nc(NC(=O)CC#N)cc(-c2c(Nc3ccn(C)n3)nc3ccccn23)n1 [Cpd 126, 2-cyano-N-(2-methyl-6-(2-((1-methyl-1H-pyrazol-3-yl)amino)imidazo[1,2-a]pyridin-3-yl)-4-pyrimidinyl)acetamide] | 690 nM | 220 nM | 
9 | Cc1nc(Nc2ccccc2F)cc(-c2c(Nc3cc[nH]n3)nc3cccnn23)n1 [Cpd 31, 3-(6-((2-fluorophenyl)amino)-2-methyl-4-pyrimidinyl)-N-1H-pyrazol-3-ylimidazo[1,2-b]pyridazin-2-amine] | 6180 nM | 790 nM | 
10 | CNc1cc(-c2c(Nc3cc[nH]n3)nc3ccc(N4CCOCC4)nn23)nc(C)n1 [Cpd 72, 3-(2-methyl-6-(methylamino)-4-pyrimidinyl)-6-(4-morpholinyl)-N-1H-pyrazol-3-ylimidazo[1,2-b]pyridazin-2-amine] | 40 nM | 3 nM | 
11 | Cc1nc(N)nc(-c2c(Nc3cc[nH]n3)nc3ccc(-c4ccoc4)cn23)n1 [Cpd 105, 3-(4-amino-6-methyl-1,3,5-triazin-2-yl)-6-(3-furanyl)-N-1H-pyrazol-3-ylimidazo[1,2-a]pyridin-2-amine] | 14 nM | 50 nM | 
12 | Cc1nc(NC(=O)CC(F)(F)F)cc(-c2c(Nc3ccn(C)n3)nc3cccnn23)n1 [Cpd 134, 3,3,3-trifluoro-N-(2-methyl-6-(2-((1-methyl-1H-pyrazol-3-yl)amino)imidazo[1,2-b]pyridazin-3-yl)-4-pyrimidinyl)propanamide] | 820 nM | 210 nM | 
13 | Cc1nc(Nc2ccc(N3CCN(C)CC3)nn2)cc(-c2c(Nc3cc[nH]n3)nc3cccnn23)n1 [Cpd 35, 3-(2-methyl-6-((6-(4-methyl-1-piperazinyl)-3-pyridazinyl)amino)-4-pyrimidinyl)-N-1H-pyrazol-3-ylimidazo[1,2-b]pyridazin-2-amine] | 10 nM | 70 nM | 
14 | CC(=O)Nc1cc(-c2c(Nc3ccn(C)n3)nc3c(F)cccn23)nc(C)n1 [Cpd 63, N-(6-(8-fluoro-2-((1-methyl-1H-pyrazol-3-yl)amino)imidazo[1,2-a]pyridin-3-yl)-2-methyl-4-pyrimidinyl)acetamide] | 60 nM | 50 nM | 
15 | Cc1nc(N)nc(-c2c(Nc3ccn[nH]3)nc3ccc(CCC(O)CO)cn23)n1 (stereo not shown) [Cpd 291, 4-(3-(4-amino-6-methyl-1,3,5-triazin-2-yl)-2-(1H-pyrazol-5-ylamino)-midazo[1,2-a]pyridin-6-yl)-1,2-butanediol] | 1210 nM |  | 170 nM
16 | Cc1nc(NC(=O)CN(C)C)cc(-c2c(Nc3ccn(C)n3)nc3cccnn23)n1 [Cpd 92] | 780 nM | 180 nM | 
17 | Cc1nc(N)cc(-c2c(Nc3cc[nH]n3)nc3ccc(OCCN4CCCC4)nn23)n1 [Cpd 73] | 50 nM | 70 nM | 
18 | Cc1nc(Nc2cc(OCC(F)(F)F)cnn2)cc(-c2c(Nc3cc[nH]n3)nc3cccnn23)n1 [Cpd 60, 3-(2-methyl-6-((5-(2,2,2-trifluoroethoxy)-3-pyridazinyl)amino)-4-pyrimidinyl)-N-1H-pyrazol-3-ylimidazo[1,2-b]pyridazin-2-amine] | 10 nM | 20 nM | 
19 | COCCOc1ccn2c(-c3nc(C)nc(N)n3)c(Nc3cc[nH]n3)nc2c1 [Cpd 185, 3-(4-amino-6-methyl-1,3,5-triazin-2-yl)-7-(2-methoxyethoxy)-N-1H-pyrazol-3-ylimidazo[1,2-a]pyridin-2-amine] | 40 nM | 50 nM | 
20 | Cc1nc(N)cc(-c2c(Nc3ccnn3C(=O)N3CCC3)nc3cccnn23)n1 [Cpd 257, 3-(6-amino-2-methyl-4-pyrimidinyl)-N-(1-(1-azetidinylcarbonyl)-1H-pyrazol-5-yl)imidazo[1,2-b]pyridazin-2-amine] | 1690 nM | 1050 nM | 
21 | Cc1nc(N)cc(-c2c(Nc3cc[nH]n3)nc3cccnn23)n1 [Cpd 7, 3-(6-amino-2-methylpyrimidin-4-yl)-N-(1H-pyrazol-3-yl)imidazo[1,2-b]pyridazin-2-amine] | 11 nM | 20 nM | 
22 | Cc1nc(N)cc(-c2c(Nc3ccc4cc[nH]c4n3)nc3ccccn23)n1 [Cpd 41, 3-(6-amino-2-methyl-4-pyrimidinyl)-N-1H-pyrrolo[2,3-b]pyridin-6-ylimidazo[1,2-a]pyridin-2-amine] | 400 nM | 400 nM | 
23 | Cc1nc(N)nc(-c2c(Nc3cc[nH]n3)nc3ccc(-c4ccc(C(=O)O)cc4C)cn23)n1 [Cpd 177, 4-(3-(4-amino-6-methyl-1,3,5-triazin-2-yl)-2-(1H-pyrazol-3-ylamino)imidazo[1,2-a]pyridin-6-yl)-3-methylbenzoic acid] | 1 nM | 170 nM | 
24 | COCCOc1ccc2nc(Nc3cc[nH]n3)c(-c3cc(N)nc(C)n3)n2n1 [Cpd 69, 3-(6-amino-2-methyl-4-pyrimidinyl)-6-(2-methoxyethoxy)-N-1H-pyrazol-3-ylimidazo[1,2-b]pyridazin-2-amine] | 4 nM | 1 nM | 
25 | Cc1nc(-c2c(Nc3cccc(O)c3)nc3ccccn23)c2nc[nH]c2n1 [Cpd 2] | 24 nM | 50 nM | 
26 | Cc1nc(N)cc(-c2c(Nc3ccn(C(=O)Nc4ccccc4C(F)(F)F)n3)nc3cccnn23)n1 [Cpd 239, 3-((3-(6-amino-2-methyl-4-pyrimidinyl)imidazo[1,2-b]pyridazin-2-yl)amino)-N-(2-(trifluoromethyl)phenyl)-1H-pyrazole-1-carboxamide] | 8 nM | 10 nM | 
27 | Cc1nc(Nc2ccc(N3CCOC(C)C3)nn2)cc(-c2c(Nc3cc[nH]n3)nc3cccnn23)n1 (stereo not shown) [Cpd 140, 3-(2-methyl-6-((6-(2-methyl-4-morpholinyl)-3-pyridazinyl)amino)-4-pyrimidinyl)-N-1H-pyrazol-3-ylimidazo[1,2-b]pyridazin-2-amine] | 110 nM | 90 nM | 
28 | CC(=O)Nc1cccc(-c2ccc3nc(Nc4cc[nH]n4)c(-c4nc(C)nc(N)n4)n3c2)c1 [Cpd 114, N-(3-(3-(4-amino-6-methyl-1,3,5-triazin-2-yl)-2-(1H-pyrazol-3-ylamino)imidazo[1,2-a]pyridin-6-yl)phenyl)acetamide] | 10 nM | 30 nM | 
29 | COc1ccc(Nc2cc(C)nn2-c2cc(N)nc(C)n2)cn1 [Cpd 24, 6-(5-(6-methoxypyridin-3-ylamino)-3-methyl-1H-pyrazol-1-yl)-2-methylpyrimidin-4-amine] | > 50000 nM | 870 nM | 
